{"source": "patent US11524968B2", "about": "“Heterocyclic compound as a protein kinase inhibitor” (HK inno.N Corporation, priority 2017, dated 2022)", "biological_target": "JAK1 (Homo sapiens (Human), UniProt P23458)", "sequence (P23458 whole entry)": "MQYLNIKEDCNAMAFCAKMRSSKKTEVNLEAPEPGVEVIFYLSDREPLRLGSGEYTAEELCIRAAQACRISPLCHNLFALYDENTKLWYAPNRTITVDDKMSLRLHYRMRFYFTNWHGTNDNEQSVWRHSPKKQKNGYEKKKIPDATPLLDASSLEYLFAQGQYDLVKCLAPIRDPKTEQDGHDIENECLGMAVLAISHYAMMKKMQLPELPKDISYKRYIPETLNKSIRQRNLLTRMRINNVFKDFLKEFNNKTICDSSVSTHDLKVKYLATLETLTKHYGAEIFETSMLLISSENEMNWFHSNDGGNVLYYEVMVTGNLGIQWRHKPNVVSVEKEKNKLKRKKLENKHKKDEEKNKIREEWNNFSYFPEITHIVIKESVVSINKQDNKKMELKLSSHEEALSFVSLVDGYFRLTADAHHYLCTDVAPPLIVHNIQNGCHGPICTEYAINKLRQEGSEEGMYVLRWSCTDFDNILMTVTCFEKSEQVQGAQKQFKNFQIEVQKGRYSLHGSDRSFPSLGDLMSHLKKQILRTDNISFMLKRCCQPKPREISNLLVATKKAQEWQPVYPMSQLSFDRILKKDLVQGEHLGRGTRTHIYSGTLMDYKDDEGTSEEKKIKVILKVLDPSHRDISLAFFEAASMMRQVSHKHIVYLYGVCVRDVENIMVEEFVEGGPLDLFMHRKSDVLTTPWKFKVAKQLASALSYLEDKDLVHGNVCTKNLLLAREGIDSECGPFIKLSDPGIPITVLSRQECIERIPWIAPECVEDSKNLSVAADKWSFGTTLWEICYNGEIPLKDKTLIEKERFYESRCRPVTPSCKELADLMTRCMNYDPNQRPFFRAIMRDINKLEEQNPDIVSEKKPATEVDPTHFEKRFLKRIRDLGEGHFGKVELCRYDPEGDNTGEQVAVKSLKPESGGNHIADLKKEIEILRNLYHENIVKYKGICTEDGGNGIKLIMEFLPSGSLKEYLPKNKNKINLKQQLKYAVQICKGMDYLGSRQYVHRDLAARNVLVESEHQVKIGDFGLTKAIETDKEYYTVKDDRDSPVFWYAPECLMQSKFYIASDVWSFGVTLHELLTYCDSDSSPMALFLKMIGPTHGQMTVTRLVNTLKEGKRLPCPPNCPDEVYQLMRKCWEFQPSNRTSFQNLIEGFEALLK", "assay": "Analysis of JAK1 activity inhibition ability (ADP-Glo Kinase Assay)", "type": "biochemical", "conditions": "JAK1 enzyme, ADP-Glo luminescence, ATP 250 uM, IRS-itide substrate, 30° C. 40 minutes; read-out: IC50", "how_it_was_run": "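JAK1 enzyme, IRS-itide substrate (40 ng/mL) and 250 uM ATP, both as prepared in kinase buffer (Tris-HCl pH 7.5, MgCl2, BSA, DTT), reacted with compound 40 min at 30 °C. ADP formed was detected by ADP-Glo luminescence; IC50 is the concentration giving 50% inhibition versus control.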"}
{"compound": "O=C(Nc1cc(-c2ccc(NS(=O)(=O)CCCF)c(F)c2)c2cc[nH]c2n1)C1CC1", "note": "[Example 76, N-(4-(3-fluoro-4-((3-fluoropropyl)sulfonamido)phenyl)-1H-pyrrolo[2,3-b]pyridin-6-yl)cyclopropanecarboxamide]", "values": [{"measurement": "IC50", "value": "< 20", "unit": "nM"}]}
{"compound": "CCS(=O)(=O)Nc1ccc(-c2cc(NC(=O)C3CC3)nc3[nH]ccc23)c(C)c1F", "note": "[Example 101, N-(4-(4-(ethylsulfonamido)-3-fluoro-2-methylphenyl)-1H-pyrrolo[2,3-b]pyridin-6-yl)cyclopropanecarboxamide]", "values": [{"measurement": "IC50", "value": "20 to 200", "unit": "nM"}]}
{"compound": "C[C@@H]1CN(C(=O)c2ccncc2F)CC=C1c1cc(NC(=O)C2CC2)nc2[nH]ccc12", "note": "[Example 402, (S)—N-(4-(1-(3-fluoroisonicotinoyl)-3-methyl-1,2,3,6-tetrahydropyridin-4-yl)-1H-pyrrolo[2,3-b]pyridin-6-yl)cyclopropanecarboxamide]", "values": [{"measurement": "IC50", "value": "< 20", "unit": "nM"}]}
{"compound": "CCS(=O)(=O)Nc1ccc(-c2cc(NC(=O)C3CC3)nc3[nH]ccc23)nc1F", "note": "[Example 149, N-(4-(5-(ethylsulfonamido)-6-fluoropyridin-2-yl)-1H-pyrrolo[2,3-b]pyridin-6-yl)cyclopropanecarboxamide]", "values": [{"measurement": "IC50", "value": "> 200", "unit": "nM"}]}
{"compound": "O=C(Nc1cc(C2=CCN(S(=O)(=O)NCC(F)(F)F)CC2)c2cc[nH]c2n1)C1CC1", "note": "[Example 232, N-(4-(1-(N-(2,2,2-trifluoroethyl)sulfamoyl)-1,2,3,6-tetrahydropyridin-4-yl)-1H-pyrrolo[2,3-b]pyridin-6-yl)cyclopropanecarboxamide]", "values": [{"measurement": "IC50", "value": "20 to 200", "unit": "nM"}]}
{"compound": "O=C(Nc1cc(N2CCN(C(=O)NCC(F)(F)F)CC2)c2cc[nH]c2n1)C1CC1", "note": "[Example 690, 4-(6-(cyclopropanecarboxamido)-1H-pyrrolo[2,3-b]pyridin-4-yl)-N-(2,2,2-trifluoroethyl)piperazine-1-carboxamide]", "values": [{"measurement": "IC50", "value": "> 200", "unit": "nM"}]}
{"compound": "CC1CN(C(=O)c2ccnc(C#N)c2)CC=C1c1cc(NC(=O)C2CC2)nc2[nH]ccc12", "note": "(stereo not drawn) [Example 392, N-(4-(1-(2-cyanoisonicotinoyl)-3-methyl-1,2,3,6-tetrahydropyridin-4-yl)-1H-pyrrolo[2,3-b]pyridin-6-yl)cyclopropanecarboxamide]", "values": [{"measurement": "IC50", "value": "20 to 200", "unit": "nM"}]}
{"compound": "Cc1cc(NS(=O)(=O)C2CCC2)ccc1-c1cc(NC(=O)C2CC2)nc2[nH]ccc12", "note": "[Example 91, N-(4-(4-(cyclobutanesulfonamido)-2-methylphenyl)-1H-pyrrolo[2,3-b]pyridin-6-yl)cyclopropanecarboxamide]", "values": [{"measurement": "IC50", "value": "20 to 200", "unit": "nM"}]}
{"compound": "CC1CN(C(=O)c2cncc(Br)c2)CC=C1c1cc(NC(=O)C2CC2)nc2[nH]ccc12", "note": "(stereo not drawn) [Example 324, N-(4-(1-(5-bromonicotinoyl)-3-methyl-1,2,3,6-tetrahydropyridin-4-yl)-1H-pyrrolo[2,3-b]pyridin-6-yl)cyclopropanecarboxamide]", "values": [{"measurement": "IC50", "value": "20 to 200", "unit": "nM"}]}
{"compound": "Cn1cncc1S(=O)(=O)Nc1ccc(-c2nc(NC(=O)C3CC3)nc3[nH]ccc23)cc1", "note": "[Example 198, N-(4-(4-((1-methyl-1H-imidazole)-5-sulfonamido)phenyl)-7H-pyrrolo[2,3-d]pyrimidin-2-yl)cyclopropanecarboxamide]", "values": [{"measurement": "IC50", "value": "> 200", "unit": "nM"}]}
{"compound": "O=C(Nc1cc(-c2ccc(NS(=O)(=O)C3CCC3)cc2C(F)(F)F)c2cc[nH]c2n1)C1CC1", "note": "[Example 120, N-(4-(4-(cyclobutanesulfonamido)-2-(trifluoromethyl)phenyl)-1H-pyrrolo[2,3-b]pyridin-6-yl)cyclopropanecarboxamide]", "values": [{"measurement": "IC50", "value": "20 to 200", "unit": "nM"}]}
{"compound": "CS(=O)(=O)N1CCN(C(=O)Cc2ccc(-c3cc(NC(=O)C4CC4)nc4[nH]ccc34)cc2)CC1", "note": "[Example 542, N-(4-(4-(2-(4-(methylsulfonyl)piperazin-1-yl)-2-oxoethyl)phenyl)-1H-pyrrolo[2,3-b]pyridin-6-yl)cyclopropanecarboxamide]", "values": [{"measurement": "IC50", "value": "< 20", "unit": "nM"}]}
{"compound": "CCS(=O)(=O)Nc1ccc(-c2cc(NC(=O)C3CC3)nc3[nH]ccc23)cc1C#N", "note": "[Example 59, N-(4-(3-cyano-4-(ethylsulfonamido)phenyl)-1H-pyrrolo[2,3-b]pyridin-6-yl)cyclopropanecarboxamide]", "values": [{"measurement": "IC50", "value": "> 200", "unit": "nM"}]}
{"compound": "O=C(Nc1nc(-c2ccc(NS(=O)(=O)CCCC(F)(F)F)cc2)c2cc[nH]c2n1)C1CC1", "note": "[Example 184, N-(4-(4-((4,4,4-trifluorobutyl)sulfonamido)phenyl)-7H-pyrrolo[2,3-d]pyrimidin-2-yl)cyclopropanecarboxamide]", "values": [{"measurement": "IC50", "value": "20 to 200", "unit": "nM"}]}
{"compound": "O=C(Nc1cc(-c2cnn(Cc3ccccc3)c2)c2cc[nH]c2n1)C1CC1", "note": "[Example 479, N-(4-(1-benzyl-1H-pyrazol-4-yl)-1H-pyrrolo[2,3-b]pyridin-6-yl)cyclopropanecarboxamide]", "values": [{"measurement": "IC50", "value": "20 to 200", "unit": "nM"}]}
{"compound": "N#CCCCS(=O)(=O)NC1CC=C(c2cc(NC(=O)C3CC3)nc3[nH]ccc23)CC1", "note": "(stereo not drawn) [Example 158, N-(4-(4-((3-cyanopropyl)sulfonamido)cyclohex-1-en-1-yl)-1H-pyrrolo[2,3-b]pyridin-6-yl)cyclopropanecarboxamide]", "values": [{"measurement": "IC50", "value": "< 20", "unit": "nM"}]}
{"compound": "CCS(=O)(=O)Nc1ccc(-c2cc(NS(=O)(=O)C3CC3)nc3[nH]ccc23)cc1F", "note": "[Example 716, N-(4-(4-(ethylsulfonamido)-3-fluorophenyl)-1H-pyrrolo[2,3-b]pyridin-6-yl)cyclopropanesulfonamide]", "values": [{"measurement": "IC50", "value": "> 200", "unit": "nM"}]}
{"compound": "O=C(Nc1cc(C2CC3CCC(C2)N3S(=O)(=O)c2ccc(F)c(F)c2)c2cc[nH]c2n1)C1CC1", "note": "(stereo not drawn) [Example 649, N-(4-(8-((3,4-difluorophenyl)sulfonyl)-8-azabicyclo[3.2.1]octan-3-yl)-1H-pyrrolo[2,3-b]pyridin-6-yl)cyclopropanecarboxamide]", "values": [{"measurement": "IC50", "value": "> 200", "unit": "nM"}]}
{"compound": "CNC(=O)Cc1ccc(-c2cc(NC(=O)C3CC3)nc3[nH]ccc23)cc1", "note": "[Example 539, N-(4-(4-(2-(methylamino)-2-oxoethyl)phenyl)-1H-pyrrolo[2,3-b]pyridin-6-yl)cyclopropanecarboxamide]", "values": [{"measurement": "IC50", "value": "20 to 200", "unit": "nM"}]}
{"compound": "CCCS(=O)(=O)Nc1c(F)cc(-c2cc(NC(=O)C3CC3)nc3[nH]ccc23)cc1F", "note": "[Example 82, N-(4-(3,5-difluoro-4-(propylsulfonamido)phenyl)-1H-pyrrolo[2,3-b]pyridin-6-yl)cyclopropanecarboxamide]", "values": [{"measurement": "IC50", "value": "20 to 200", "unit": "nM"}]}
{"compound": "CCS(=O)(=O)N1CC(CC#N)(N2CC=C(c3cc(NC(=O)C4CC4)nc4[nH]ccc34)CC2)C1", "note": "[Example 616, N-(4-(1-(3-(cyanomethyl)-1-(ethylsulfonyl)azetidin-3-yl)-1,2,3,6-tetrahydropyridin-4-yl)-1H-pyrrolo[2,3-b]pyridin-6-yl)cyclopropanecarboxamide]", "values": [{"measurement": "IC50", "value": "< 20", "unit": "nM"}]}
{"compound": "CC(C)(C)OC(=O)N1C2CCC1CN(c1cc(NC(=O)C3CC3)nc3[nH]ccc13)C2", "note": "[Example 693, tert-butyl 3-(6-(cyclopropanecarboxamido)-1H-pyrrolo[2,3-b]pyridin-4-yl)-3,8-diazabicyclo[3.2.1]octane-8-carboxylate]", "values": [{"measurement": "IC50", "value": "20 to 200", "unit": "nM"}]}
{"compound": "O=C(Nc1cc(-c2cnn(C3CNC3)c2)c2cc[nH]c2n1)C1CC1", "note": "[Example 600, N-(4-(1-(azetidin-3-yl)-1H-pyrazol-4-yl)-1H-pyrrolo[2,3-b]pyridin-6-yl)cyclopropanecarboxamide]", "values": [{"measurement": "IC50", "value": "20 to 200", "unit": "nM"}]}
{"compound": "O=C(Nc1cc(-c2ccc(NS(=O)(=O)c3ccc(Br)cc3F)cc2)c2cc[nH]c2n1)C1CC1", "note": "[Example 32, N-(4-(4-((4-bromo-2-fluorophenyl)sulfonamido)phenyl)-1H-pyrrolo[2,3-b]pyridin-6-yl)cyclopropanecarboxamide]", "values": [{"measurement": "IC50", "value": "20 to 200", "unit": "nM"}]}
{"compound": "N#CC1(CC(=O)N2C3CCC2CN(c2nc(NC(=O)C4CC4)nc4[nH]ccc24)C3)CC1", "note": "[Example 689, N-(4-(8-(2-(1-cyanocyclopropyl)acetyl)-3,8-diazabicyclo[3.2.1]octan-3-yl)-7H-pyrrolo[2,3-d]pyrimidin-2-yl)cyclopropanecarboxamide]", "values": [{"measurement": "IC50", "value": "20 to 200", "unit": "nM"}]}
{"compound": "N#CCC1(N2CC=C(c3cc(NC(=O)C4CC4)nc4[nH]ccc34)CC2)CNC1", "note": "[Example 615, N-(4-(1-(3-(cyanomethyl)azetidin-3-yl)-1,2,3,6-tetrahydropyridin-4-yl)-1H-pyrrolo[2,3-b]pyridin-6-yl)cyclopropanecarboxamide]", "values": [{"measurement": "IC50", "value": "20 to 200", "unit": "nM"}]}
{"compound": "O=C(Nc1nc(-c2ccc(NS(=O)(=O)c3ccc(Br)cc3)cc2)c2cc[nH]c2n1)C1CC1", "note": "[Example 189, N-(4-(4-((4-bromophenyl)sulfonamido)phenyl)-7H-pyrrolo[2,3-d]pyrimidin-2-yl)cyclopropanecarboxamide]", "values": [{"measurement": "IC50", "value": "20 to 200", "unit": "nM"}]}
{"compound": "O=C(Nc1nc(-c2ccc(NS(=O)(=O)CCCF)c(F)c2)c2cc[nH]c2n1)C1CC1", "note": "[Example 203, N-(4-(3-fluoro-4-((3-fluoropropyl)sulfonamido)phenyl)-7H-pyrrolo[2,3-d]pyrimidin-2-yl)cyclopropanecarboxamide]", "values": [{"measurement": "IC50", "value": "< 20", "unit": "nM"}]}
{"compound": "CCCCS(=O)(=O)Nc1ccc(-c2cc(NC(=O)C3CC3)nc3[nH]ccc23)c(CC)c1", "note": "[Example 116, N-(4-(4-(butylsulfonamido)-2-ethylphenyl)-1H-pyrrolo[2,3-b]pyridin-6-yl)cyclopropanecarboxamide]", "values": [{"measurement": "IC50", "value": "20 to 200", "unit": "nM"}]}
{"compound": "C[C@H]1CC(Nc2ccc(-c3cc(NC(=O)C4CC4)nc4[nH]ccc34)cc2)CCN1C(=O)Nc1ccc(F)cc1F", "note": "(stereo partly drawn) [Example 506, (2S)-4-((4-(6-(cyclopropanecarboxamido)-1H-pyrrolo[2,3-b]pyridin-4-yl)phenyl)amino)-N-(2,4-difluorophenyl)-2-methylpiperidine-1-carboxamide]", "values": [{"measurement": "IC50", "value": "20 to 200", "unit": "nM"}]}
{"compound": "CC(C#N)C(=O)N1CC=C(c2cc(NC(=O)C3CC3)nc3[nH]ccc23)CC1", "note": "(stereo not drawn) [Example 269, N-(4-(1-(2-cyanopropanoyl)-1,2,3,6-tetrahydropyridin-4-yl)-1H-pyrrolo[2,3-b]pyridin-6-yl)cyclopropanecarboxamide]", "values": [{"measurement": "IC50", "value": "< 20", "unit": "nM"}]}
{"compound": "N#CC1(CS(=O)(=O)Nc2ccc(-c3cc(NC(=O)C4CC4)nc4[nH]ccc34)c(C(=O)O)c2)CC1", "note": "[Example 143]", "values": [{"measurement": "IC50", "value": "> 200", "unit": "nM"}]}
{"compound": "O=C(Nc1cc(-c2ccc(CC(=O)N3CCOCC3)cc2)c2cc[nH]c2n1)C1CC1", "note": "[Example 536, N-(4-(4-(2-morpholino-2-oxoethyl)phenyl)-1H-pyrrolo[2,3-b]pyridin-6-yl)cyclopropanecarboxamide]", "values": [{"measurement": "IC50", "value": "20 to 200", "unit": "nM"}]}
